Among the data in ChEMBL document CHEMBL5212743, “Selectivity Literature for EUbOPEN Chemogenomics Library wave 3” (2023) are % of inhibition, dTm and % of control values, retold here.

Assay [1] has as its target Hepatocyte growth factor receptor (Homo sapiens) (UniProt P08581). To be noted: at 1 µM.
Assay [2] addresses Mitogen-activated protein kinase kinase kinase kinase 2 (Homo sapiens) (UniProt Q12851). To be noted: at 1 µM.
Assay [3] concerns the target T1, Bromodomain-containing protein 7 (Homo sapiens) (UniProt Q9NPI1).
T1 sequence (whole entry): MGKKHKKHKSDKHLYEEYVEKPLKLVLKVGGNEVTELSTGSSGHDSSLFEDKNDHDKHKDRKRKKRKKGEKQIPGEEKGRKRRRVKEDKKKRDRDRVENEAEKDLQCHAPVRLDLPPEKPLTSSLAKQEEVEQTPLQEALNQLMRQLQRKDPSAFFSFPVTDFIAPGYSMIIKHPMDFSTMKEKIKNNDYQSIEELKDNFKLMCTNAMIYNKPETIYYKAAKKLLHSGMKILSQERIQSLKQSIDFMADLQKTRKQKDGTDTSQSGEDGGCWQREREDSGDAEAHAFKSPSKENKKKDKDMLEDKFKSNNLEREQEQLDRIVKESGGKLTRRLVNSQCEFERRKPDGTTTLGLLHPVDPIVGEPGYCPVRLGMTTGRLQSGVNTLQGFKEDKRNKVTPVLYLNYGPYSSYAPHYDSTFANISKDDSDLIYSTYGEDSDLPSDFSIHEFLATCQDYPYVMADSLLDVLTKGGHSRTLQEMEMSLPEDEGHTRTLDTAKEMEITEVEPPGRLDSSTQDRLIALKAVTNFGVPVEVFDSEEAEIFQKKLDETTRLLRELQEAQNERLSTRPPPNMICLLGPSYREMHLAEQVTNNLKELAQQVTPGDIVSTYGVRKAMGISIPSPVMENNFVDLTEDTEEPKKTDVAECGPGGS
The assay can be described thus: Selectivity interaction (Bromodomain panel (DSF assay)) EUB0000004c BRD7.

In assay [4] the target is T2, Chromatin remodeling regulator CECR2 (Homo sapiens, UniProt Q9BXF3). Kind of assay: Selectivity interaction (Bromoscan (DiscoverX, BromoKdELECT)) EUB0000004c CECR2. To be noted: at 10 µM.
The next assay concerns the target CREB-binding protein (Homo sapiens, UniProt Q92793). Kind of assay: Selectivity interaction (Bromoscan (DiscoverX, BromoKdELECT)) EUB0000004c CREBBP. The settings on record: at 10 µM.
Assay [5] addresses Transcription initiation factor TFIID subunit 1 (Homo sapiens, UniProt P21675). Kind of assay: Selectivity interaction (Bromoscan (DiscoverX, BromoKdELECT)) EUB0000004c TAF1. To be noted: at 10 µM.
In assay [6] the target is T2, Chromatin remodeling regulator CECR2. Kind of assay: Selectivity interaction (Bromodomain panel (DSF assay)) EUB0000004c CECR2.
The target in assay [7] is Bromodomain-containing protein 9 (Homo sapiens) (UniProt Q9H8M2). The assay can be described thus: Selectivity interaction (Bromodomain panel (DSF assay)) EUB0000004c BRD9. In general terms: Differential scanning fluorimetry follows unfolding on heating by fluorescence.
Assay [8] addresses T3, Dual specificity mitogen-activated protein kinase kinase 5 (Homo sapiens) (UniProt Q13163).
T3 sequence (whole entry): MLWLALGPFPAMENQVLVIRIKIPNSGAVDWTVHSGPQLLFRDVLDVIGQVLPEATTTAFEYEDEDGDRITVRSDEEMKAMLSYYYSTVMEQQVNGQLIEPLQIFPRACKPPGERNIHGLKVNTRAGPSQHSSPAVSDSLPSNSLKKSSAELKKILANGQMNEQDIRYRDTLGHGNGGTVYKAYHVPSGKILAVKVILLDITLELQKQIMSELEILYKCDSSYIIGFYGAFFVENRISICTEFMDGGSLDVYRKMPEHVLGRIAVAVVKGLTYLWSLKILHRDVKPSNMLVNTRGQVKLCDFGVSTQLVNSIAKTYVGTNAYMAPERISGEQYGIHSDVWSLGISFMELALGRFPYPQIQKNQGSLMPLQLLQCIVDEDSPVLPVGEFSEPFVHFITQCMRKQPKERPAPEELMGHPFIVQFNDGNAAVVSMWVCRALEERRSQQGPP
Kind of assay: Selectivity interaction (ScanMAX (DiscoverX)) EUB0000700a MAP2K5. The settings on record: at 10 µM.

Assay [9] deals with Inhibitor of nuclear factor kappa-B kinase subunit epsilon (Homo sapiens) (UniProt Q14164). To be noted: at 1 µM.
The target of assay [10] is Tyrosine-protein kinase ABL1 (Homo sapiens, UniProt P00519). Kind of assay: Selectivity interaction (KinomeScan (DiscoverX)) EUB0000701a ABL1. To be noted: at 1 µM.
In assay [11] the test system is Receptor-type tyrosine-protein kinase FLT3 (Homo sapiens), P36888 [UNDEFINED MUTATION]. The assay can be described thus: (§1) Selectivity interaction (KinomeScan (DiscoverX)) EUB0000701a FLT3. To be noted: at 1 µM.
For assay [12], the system named is T4, Receptor-type tyrosine-protein kinase FLT3 (Homo sapiens), P36888 [D835V].
T4 sequence (whole entry): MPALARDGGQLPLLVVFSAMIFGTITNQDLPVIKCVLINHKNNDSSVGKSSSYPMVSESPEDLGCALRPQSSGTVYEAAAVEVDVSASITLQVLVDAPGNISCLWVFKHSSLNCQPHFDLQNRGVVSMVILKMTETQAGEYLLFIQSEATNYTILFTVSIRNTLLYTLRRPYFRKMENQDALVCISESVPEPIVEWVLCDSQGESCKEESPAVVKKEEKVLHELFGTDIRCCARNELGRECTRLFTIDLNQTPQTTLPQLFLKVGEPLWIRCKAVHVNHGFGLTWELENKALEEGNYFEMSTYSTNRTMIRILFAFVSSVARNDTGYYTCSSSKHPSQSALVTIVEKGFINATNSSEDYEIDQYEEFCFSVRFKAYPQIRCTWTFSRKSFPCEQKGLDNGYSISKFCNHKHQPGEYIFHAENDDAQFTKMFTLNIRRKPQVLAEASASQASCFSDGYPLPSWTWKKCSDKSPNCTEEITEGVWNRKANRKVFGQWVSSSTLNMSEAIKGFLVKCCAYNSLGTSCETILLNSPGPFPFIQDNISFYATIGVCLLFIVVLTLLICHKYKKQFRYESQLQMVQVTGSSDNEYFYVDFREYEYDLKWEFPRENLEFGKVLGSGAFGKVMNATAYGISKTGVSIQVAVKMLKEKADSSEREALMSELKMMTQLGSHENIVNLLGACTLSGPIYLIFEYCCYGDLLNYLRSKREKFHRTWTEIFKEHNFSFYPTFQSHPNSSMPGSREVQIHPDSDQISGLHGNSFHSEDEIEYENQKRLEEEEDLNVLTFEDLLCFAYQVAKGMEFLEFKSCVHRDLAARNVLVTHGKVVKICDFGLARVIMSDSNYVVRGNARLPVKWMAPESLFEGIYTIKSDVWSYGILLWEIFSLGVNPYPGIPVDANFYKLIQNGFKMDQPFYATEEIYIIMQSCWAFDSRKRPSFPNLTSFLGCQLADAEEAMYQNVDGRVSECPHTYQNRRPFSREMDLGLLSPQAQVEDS
The description is as §1. The settings on record: at 1 µM.

The target of assay [13] is T5, Mitogen-activated protein kinase kinase kinase 19 (Homo sapiens) (UniProt Q56UN5).
T5 sequence (whole entry): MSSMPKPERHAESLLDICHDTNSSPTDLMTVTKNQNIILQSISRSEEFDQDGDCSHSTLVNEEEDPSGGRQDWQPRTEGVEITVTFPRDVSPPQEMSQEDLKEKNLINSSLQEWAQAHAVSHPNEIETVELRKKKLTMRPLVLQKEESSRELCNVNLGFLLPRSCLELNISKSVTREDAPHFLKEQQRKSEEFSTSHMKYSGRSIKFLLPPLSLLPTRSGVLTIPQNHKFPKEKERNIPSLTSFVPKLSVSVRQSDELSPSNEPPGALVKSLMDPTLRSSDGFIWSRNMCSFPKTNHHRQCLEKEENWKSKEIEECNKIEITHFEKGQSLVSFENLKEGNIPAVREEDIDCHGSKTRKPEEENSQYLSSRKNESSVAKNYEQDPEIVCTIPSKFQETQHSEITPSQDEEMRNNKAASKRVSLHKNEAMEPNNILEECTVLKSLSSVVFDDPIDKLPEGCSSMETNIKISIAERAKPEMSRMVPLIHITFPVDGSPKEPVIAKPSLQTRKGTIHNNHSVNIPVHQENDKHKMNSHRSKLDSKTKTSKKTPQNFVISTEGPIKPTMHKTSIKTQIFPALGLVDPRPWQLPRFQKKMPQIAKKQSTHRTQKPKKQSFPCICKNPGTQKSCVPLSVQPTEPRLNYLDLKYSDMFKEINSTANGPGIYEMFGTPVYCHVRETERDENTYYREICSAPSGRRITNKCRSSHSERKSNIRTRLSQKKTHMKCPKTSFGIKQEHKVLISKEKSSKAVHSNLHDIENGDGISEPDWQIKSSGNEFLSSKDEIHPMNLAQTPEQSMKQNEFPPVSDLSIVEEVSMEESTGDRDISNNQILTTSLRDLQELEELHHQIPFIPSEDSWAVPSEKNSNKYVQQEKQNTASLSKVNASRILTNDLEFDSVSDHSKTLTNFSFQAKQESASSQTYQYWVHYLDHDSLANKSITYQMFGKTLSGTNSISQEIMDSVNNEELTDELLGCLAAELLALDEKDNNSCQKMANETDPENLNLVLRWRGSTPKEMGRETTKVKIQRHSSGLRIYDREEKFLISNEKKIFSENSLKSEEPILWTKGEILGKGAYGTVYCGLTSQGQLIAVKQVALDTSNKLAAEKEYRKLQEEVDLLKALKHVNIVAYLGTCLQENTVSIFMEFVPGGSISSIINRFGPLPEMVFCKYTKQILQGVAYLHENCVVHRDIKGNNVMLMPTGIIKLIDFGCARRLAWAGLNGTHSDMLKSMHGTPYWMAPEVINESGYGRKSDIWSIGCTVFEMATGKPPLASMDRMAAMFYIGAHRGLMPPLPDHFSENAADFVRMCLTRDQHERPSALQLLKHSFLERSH
Kind of assay: Selectivity interaction (KinomeScan (DiscoverX)) EUB0000701a MAP3K19. The settings on record: at 1 µM.

In assay [14] the target is T3, Dual specificity mitogen-activated protein kinase kinase 5 (Homo sapiens). Kind of assay: Selectivity interaction (KinomeScan (DiscoverX)) EUB0000701a MAP2K5. The settings on record: at 1 µM.
The target of assay [15] is T6, Phosphatidylinositol 4,5-bisphosphate 3-kinase catalytic subunit delta isoform (Homo sapiens) (UniProt O00329).
T6 sequence (whole entry): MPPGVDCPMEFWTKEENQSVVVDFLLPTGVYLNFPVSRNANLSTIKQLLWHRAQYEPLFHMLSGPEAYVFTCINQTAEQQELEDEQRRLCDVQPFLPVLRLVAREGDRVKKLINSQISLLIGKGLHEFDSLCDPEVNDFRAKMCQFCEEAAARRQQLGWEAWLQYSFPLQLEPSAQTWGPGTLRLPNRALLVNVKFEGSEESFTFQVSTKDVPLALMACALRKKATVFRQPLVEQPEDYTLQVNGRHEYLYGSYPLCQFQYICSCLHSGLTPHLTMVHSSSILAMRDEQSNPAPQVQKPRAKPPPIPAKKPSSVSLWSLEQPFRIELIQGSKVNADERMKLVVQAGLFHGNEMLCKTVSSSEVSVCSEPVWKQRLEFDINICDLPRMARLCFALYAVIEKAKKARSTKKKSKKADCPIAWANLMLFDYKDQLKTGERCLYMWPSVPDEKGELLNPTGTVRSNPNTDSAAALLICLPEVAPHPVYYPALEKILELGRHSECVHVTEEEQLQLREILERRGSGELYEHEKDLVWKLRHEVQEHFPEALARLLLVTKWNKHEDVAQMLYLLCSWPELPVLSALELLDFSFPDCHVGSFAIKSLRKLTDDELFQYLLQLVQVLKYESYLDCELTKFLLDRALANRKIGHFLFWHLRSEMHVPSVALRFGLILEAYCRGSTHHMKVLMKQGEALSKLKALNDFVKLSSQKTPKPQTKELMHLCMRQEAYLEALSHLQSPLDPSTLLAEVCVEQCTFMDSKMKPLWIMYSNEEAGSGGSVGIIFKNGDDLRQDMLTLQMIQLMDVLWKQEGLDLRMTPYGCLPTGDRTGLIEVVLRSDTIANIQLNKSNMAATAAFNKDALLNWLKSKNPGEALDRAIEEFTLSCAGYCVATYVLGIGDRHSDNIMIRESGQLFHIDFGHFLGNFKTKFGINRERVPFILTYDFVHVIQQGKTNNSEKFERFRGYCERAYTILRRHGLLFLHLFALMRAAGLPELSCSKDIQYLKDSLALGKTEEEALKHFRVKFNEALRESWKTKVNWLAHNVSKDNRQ
The assay can be described thus: Selectivity interaction (KinomeScan (DiscoverX)) EUB0000709a PIK3CD. To be noted: at 100 nM.

Assay [16] concerns the target cAMP-dependent protein kinase catalytic subunit alpha (Homo sapiens, UniProt P17612). The assay can be described thus: Selectivity interaction (KinomeScan (DiscoverX)) EUB0000709a PRKACA. The settings on record: at 100 nM.
Assay [17] deals with Epidermal growth factor receptor (Homo sapiens, UniProt P00533). The assay can be described thus: Selectivity interaction (KinomeScan (DiscoverX)) EUB0000709a EGFR. The settings on record: at 100 nM.

Each structure is given as a SMILES string.

T2 sequence (Q9BXF3 whole entry, looked up): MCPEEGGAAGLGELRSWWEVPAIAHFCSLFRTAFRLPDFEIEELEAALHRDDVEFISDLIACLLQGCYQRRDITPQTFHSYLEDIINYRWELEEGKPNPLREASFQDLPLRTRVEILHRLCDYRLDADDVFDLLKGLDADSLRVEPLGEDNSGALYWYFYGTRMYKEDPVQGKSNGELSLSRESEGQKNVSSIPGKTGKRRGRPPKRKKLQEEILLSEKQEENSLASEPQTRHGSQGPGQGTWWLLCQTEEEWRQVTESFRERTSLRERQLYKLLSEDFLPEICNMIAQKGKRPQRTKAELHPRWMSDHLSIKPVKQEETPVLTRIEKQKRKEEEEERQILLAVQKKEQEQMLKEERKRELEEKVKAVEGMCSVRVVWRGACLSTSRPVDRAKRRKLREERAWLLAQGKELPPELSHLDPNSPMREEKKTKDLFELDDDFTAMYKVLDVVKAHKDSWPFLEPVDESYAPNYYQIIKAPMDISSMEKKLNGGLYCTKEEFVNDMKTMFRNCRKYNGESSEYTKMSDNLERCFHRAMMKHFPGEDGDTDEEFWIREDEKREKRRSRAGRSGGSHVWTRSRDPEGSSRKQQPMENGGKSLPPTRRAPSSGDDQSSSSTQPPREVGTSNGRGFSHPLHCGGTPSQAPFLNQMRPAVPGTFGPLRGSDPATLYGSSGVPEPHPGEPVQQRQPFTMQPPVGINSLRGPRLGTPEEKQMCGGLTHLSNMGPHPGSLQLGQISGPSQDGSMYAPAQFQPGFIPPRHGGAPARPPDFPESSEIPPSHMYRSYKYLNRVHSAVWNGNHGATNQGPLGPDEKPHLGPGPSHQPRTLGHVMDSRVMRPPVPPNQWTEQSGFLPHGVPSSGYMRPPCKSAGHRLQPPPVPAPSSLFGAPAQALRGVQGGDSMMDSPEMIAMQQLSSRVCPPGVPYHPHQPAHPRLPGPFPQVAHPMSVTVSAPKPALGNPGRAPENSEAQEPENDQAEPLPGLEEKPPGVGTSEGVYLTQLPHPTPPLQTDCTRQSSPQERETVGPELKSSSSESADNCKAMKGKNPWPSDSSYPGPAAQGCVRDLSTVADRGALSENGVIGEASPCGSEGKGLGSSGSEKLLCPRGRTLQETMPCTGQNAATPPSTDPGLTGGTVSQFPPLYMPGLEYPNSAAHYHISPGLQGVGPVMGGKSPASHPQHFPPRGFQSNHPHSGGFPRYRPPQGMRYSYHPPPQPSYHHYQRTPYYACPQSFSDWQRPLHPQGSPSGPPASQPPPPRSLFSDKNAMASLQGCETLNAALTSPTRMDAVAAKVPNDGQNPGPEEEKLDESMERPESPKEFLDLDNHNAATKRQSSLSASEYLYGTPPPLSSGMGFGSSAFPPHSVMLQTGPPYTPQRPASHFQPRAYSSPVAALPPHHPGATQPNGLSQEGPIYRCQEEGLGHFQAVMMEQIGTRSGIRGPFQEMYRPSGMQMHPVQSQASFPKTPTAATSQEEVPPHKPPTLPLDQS
Mitogen-activated protein kinase kinase kinase kinase 2 (Homo sapiens), sequence (Q12851 whole entry): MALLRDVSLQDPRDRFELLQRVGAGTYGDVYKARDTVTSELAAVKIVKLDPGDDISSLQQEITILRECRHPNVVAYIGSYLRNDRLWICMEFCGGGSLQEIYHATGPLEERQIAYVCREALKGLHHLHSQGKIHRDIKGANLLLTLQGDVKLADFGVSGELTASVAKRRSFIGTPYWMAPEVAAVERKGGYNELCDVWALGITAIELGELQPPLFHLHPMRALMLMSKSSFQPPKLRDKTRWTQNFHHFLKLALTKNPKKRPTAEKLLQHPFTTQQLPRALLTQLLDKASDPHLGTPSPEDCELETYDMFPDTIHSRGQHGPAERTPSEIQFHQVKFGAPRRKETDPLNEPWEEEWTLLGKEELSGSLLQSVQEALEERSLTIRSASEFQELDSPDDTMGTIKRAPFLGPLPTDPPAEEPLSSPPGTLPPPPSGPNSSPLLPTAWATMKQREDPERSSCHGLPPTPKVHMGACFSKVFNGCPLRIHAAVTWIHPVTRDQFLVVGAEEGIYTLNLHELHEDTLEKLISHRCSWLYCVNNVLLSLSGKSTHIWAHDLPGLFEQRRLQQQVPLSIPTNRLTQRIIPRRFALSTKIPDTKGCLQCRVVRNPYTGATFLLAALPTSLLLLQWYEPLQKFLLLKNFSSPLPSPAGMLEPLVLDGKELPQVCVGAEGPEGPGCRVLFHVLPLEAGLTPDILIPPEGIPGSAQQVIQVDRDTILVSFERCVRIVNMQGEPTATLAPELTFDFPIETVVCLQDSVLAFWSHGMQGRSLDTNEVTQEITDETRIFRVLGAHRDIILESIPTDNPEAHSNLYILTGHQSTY
Bromodomain-containing protein 9 (Homo sapiens), sequence (Q9H8M2 whole entry): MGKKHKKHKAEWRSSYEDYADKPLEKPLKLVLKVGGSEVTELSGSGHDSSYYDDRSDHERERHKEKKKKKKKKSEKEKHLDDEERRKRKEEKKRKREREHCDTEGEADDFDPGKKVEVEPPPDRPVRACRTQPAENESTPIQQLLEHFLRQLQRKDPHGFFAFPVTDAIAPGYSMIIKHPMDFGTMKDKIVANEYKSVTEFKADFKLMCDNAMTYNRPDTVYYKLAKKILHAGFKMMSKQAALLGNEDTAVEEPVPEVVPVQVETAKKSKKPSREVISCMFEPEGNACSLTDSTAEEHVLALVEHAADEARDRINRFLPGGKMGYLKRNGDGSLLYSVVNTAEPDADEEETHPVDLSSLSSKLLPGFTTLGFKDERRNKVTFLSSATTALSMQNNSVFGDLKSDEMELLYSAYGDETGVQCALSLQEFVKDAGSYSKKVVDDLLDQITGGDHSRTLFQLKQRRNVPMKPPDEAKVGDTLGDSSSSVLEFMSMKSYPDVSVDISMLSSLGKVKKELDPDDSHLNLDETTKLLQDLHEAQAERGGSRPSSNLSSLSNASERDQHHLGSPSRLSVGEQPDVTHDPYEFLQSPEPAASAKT
Transcription initiation factor TFIID subunit 1, sequence (P21675 whole entry): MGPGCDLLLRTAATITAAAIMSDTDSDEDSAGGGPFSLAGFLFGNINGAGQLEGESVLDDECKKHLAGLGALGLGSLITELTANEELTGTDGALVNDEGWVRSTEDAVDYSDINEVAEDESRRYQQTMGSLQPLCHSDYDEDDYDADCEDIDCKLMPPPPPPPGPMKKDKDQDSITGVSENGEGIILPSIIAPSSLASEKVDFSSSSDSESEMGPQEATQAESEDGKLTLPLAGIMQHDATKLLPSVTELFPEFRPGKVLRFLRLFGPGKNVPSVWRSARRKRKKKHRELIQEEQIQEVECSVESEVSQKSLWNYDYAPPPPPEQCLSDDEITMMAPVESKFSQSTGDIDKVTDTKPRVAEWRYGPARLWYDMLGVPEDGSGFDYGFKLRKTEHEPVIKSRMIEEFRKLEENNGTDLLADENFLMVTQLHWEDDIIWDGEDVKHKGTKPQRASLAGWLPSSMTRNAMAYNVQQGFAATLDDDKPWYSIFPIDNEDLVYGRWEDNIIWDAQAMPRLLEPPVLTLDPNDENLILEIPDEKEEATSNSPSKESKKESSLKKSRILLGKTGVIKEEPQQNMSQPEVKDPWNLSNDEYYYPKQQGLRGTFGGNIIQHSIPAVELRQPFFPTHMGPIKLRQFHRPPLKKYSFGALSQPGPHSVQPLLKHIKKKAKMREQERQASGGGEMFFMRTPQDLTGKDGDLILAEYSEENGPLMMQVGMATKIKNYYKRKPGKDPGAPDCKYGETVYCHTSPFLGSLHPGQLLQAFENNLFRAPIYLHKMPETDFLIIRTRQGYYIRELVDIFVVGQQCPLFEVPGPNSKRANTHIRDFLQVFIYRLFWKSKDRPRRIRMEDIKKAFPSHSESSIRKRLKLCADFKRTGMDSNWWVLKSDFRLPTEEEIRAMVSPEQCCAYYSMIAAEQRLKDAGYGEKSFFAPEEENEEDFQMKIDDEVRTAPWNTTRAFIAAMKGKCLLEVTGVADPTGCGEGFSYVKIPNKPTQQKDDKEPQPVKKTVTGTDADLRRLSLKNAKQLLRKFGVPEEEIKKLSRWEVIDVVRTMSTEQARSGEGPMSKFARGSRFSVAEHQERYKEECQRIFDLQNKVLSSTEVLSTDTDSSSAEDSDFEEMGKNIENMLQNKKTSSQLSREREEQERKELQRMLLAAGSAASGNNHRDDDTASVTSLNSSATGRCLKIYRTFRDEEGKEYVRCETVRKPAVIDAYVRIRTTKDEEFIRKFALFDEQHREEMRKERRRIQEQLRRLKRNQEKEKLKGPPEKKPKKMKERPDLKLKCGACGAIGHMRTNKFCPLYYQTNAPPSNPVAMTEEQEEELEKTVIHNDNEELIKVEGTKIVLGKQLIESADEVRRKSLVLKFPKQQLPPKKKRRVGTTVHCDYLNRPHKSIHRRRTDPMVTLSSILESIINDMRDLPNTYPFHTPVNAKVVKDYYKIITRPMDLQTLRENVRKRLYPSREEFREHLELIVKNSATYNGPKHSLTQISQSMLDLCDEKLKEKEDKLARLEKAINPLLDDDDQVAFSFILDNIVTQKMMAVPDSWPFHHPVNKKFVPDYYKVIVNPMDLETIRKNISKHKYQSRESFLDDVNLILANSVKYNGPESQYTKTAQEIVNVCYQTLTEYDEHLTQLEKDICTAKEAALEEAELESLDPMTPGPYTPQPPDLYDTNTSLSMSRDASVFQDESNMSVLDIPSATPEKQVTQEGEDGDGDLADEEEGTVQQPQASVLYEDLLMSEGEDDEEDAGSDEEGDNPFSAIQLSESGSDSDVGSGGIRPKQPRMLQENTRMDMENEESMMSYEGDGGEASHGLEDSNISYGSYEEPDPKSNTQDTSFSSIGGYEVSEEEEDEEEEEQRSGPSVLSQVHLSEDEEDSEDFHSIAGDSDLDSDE

As to `C[C@]1(O)C[C@@H](c2nc(-c3ccc4ccc(-c5ccccc5)nc4c3)c3c(N)nccn32)C1`, the % of inhibition in assay [1] was 86%; in [2], 99%.

`COc1cc(-c2cn(C)c(=O)c3cnccc23)c(OC)cc1CN(C)C`: the dTm is 6.47 K in assay [3], 5.61 K in assay [6] and 9.21 K in [7]. In addition, the % of control was determined as 0% in assay [4], 7.2% on CREB-binding protein and 8.4% in [5].

With `C[C@H](NC(=O)Nc1cc2[nH]ncc2c(CO)n1)c1ccccn1`, the % of control in assay [8] is 17.6%.

As for `CN(C)c1ncnc(-c2ccc3nc(Nc4cc(CN5CCN(C(=O)CC(F)(F)F)CC5)ccn4)[nH]c3c2)c1Cl`, the % of control in assay [9] was 13%; in assay [10] it was 4.2%; in assay [11], 15%; in assay [12], 7%; in assay [13], 15%; in [14], 1.8%.

`Cn1cc(Cl)c2c(Oc3c(F)cc(Nc4cc(Cl)nc(N)n4)cc3F)ccnc21`: the % of control in assay [15] came to 51%; in assay [16], 28%; in [17] it was 52%.
